{
  "source": "patent US20010056087A1",
  "about": "“Use of 5alpha-androst-1en-3,17-diol to increase the level of the anabolic/androgenic hormone 17beta-hydroxy-5alpha-androst-1-en-3-one in humans” (priority 2000, published 2001)",
  "origin": "cited, not measured here",
  "details": "One hundred mg given orally to men",
  "data": [
    {"smiles": "C[C@]12C=CC(=O)C[C@@H]1CC[C@@H]1[C@@H]2CC[C@]2(C)C(=O)CC[C@@H]12", "note": "[1-androstenedione, 5alpha-androst-1-en-3,17-dione]", "values": [
      {"measurement": "excretion of 17beta-hydroxy-5alpha-androst-1-en-3-one in the urine (in-vivo conversion)", "value": "considerable excretion of 17beta-hydroxy-5alpha-androst-1-en-3-one in the urine"}
    ]}
  ]
}
